Measured values reported in US6740640B2, “Sulfofucosylacylglycerol derivatives and administration thereof as medicaments” (Toyo Suisan Kaisha, Ltd., priority 1999, dated 2004).
Structures can show the parent of a compound that is named as a salt.

How the values were obtained:
Colon cancer cells DLD-1 = assay: Anticancer activity against cultured colon cancer cells (MTT assay); type: cell-based; settings: Homo sapiens, DLD-1, 48 hour cultivation
Description: An assay on anticancer activity against cultured colon cancer cells was carried out in the following manner.
(§1) Colon cancer cells DLD-1 were maintained and subcultured in RPMI 1640 medium (containing 10% calf serum). Each of the test compounds (SFAG1 to SFAG3 shown in Table 1) was suspended and diluted in the medium, and then the cancer cells were cultivated together with the medium in a 96-well plate at 3×10^3 cells/well. After 48 hour cultivation, the MTT assay (Mosmann, T: Journal of Immunological Method, 65, 55-63 (1983)) was carried out to compare survival rates.
The results are shown as IC50 in Table 2 below.

DNA polymerase α = molecular target: T1, DNA polymerase α (Bos taurus, UniProt A0AAA9TD94); assay: Inhibitory effect against DNA polymerase α ([3H]-dTTP incorporation); type: biochemical; settings: DNA polymerase α from bovine thymus, 0.05 U, 37° C. for 60 minutes
T1 construct: from tissue; host or cells: bovine thymus
T1 sequence (A0AAA9TD94 1-1441): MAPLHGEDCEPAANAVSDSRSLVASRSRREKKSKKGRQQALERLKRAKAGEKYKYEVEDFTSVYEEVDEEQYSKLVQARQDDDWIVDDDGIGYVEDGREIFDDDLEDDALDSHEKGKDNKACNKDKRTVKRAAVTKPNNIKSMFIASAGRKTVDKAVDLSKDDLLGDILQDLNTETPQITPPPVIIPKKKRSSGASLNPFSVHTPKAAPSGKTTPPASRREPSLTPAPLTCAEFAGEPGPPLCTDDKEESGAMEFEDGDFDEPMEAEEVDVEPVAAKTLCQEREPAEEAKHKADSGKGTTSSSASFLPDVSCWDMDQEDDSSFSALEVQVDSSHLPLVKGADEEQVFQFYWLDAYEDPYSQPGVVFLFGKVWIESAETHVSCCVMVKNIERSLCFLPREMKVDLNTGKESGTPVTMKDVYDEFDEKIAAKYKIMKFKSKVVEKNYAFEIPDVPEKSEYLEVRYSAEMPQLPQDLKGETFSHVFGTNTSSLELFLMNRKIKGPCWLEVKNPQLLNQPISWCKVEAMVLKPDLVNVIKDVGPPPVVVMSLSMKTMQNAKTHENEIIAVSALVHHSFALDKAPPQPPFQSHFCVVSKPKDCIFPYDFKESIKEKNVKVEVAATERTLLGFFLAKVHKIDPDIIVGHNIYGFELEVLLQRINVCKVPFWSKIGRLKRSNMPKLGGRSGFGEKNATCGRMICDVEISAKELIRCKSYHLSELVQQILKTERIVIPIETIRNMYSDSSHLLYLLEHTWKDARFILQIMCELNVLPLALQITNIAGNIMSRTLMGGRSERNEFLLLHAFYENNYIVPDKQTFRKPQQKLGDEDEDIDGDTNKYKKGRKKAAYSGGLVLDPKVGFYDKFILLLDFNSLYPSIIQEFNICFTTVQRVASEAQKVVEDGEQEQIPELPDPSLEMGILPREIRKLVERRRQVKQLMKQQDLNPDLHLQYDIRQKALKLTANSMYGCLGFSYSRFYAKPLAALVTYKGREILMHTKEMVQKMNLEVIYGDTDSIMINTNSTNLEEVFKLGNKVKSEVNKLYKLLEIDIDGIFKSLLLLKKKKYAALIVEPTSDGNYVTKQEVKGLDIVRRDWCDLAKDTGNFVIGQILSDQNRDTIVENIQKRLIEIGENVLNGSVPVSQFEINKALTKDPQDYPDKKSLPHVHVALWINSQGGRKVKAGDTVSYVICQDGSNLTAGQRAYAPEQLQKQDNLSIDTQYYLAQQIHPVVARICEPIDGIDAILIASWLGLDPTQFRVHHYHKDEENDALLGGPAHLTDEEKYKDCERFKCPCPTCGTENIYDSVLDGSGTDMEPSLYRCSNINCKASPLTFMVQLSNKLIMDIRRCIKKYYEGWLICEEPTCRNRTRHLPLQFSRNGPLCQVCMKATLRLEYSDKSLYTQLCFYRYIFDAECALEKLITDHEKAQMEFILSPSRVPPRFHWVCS
Description: An assay on inhibitory effect against a DNA polymerase α was carried out in the following manner.
Each mixture was added with a buffer containing inorganic salts for the enzymatic reaction, [^3H]-labeled dTTP and compounds for reaction containing a template DNA strand, and incubated at 37° C. for 60 minutes.
After the enzymatic reaction was quenched, the resultant reaction product was fixed on a dedicated filter and subjected to measurement by a liquid scintillation counter. The amount of enzymatically incorporated dTTP was calculated as a radiation dose (cpm) of [^3H]. Note that, each of the sulfofucosylacylglycerol derivatives is a mixture of the S- and R-configurations with respect to an absolute configuration of the carbon of the 2-position of the glycerol moiety.
The results are shown as IC50 in Table 1 below.

[1] = tested on: gastric cancer cells NUGC-3; assay: Anticancer activity against cultured gastric cancer cells (MTT assay); type: cell-based; settings: Homo sapiens, NUGC-3, 48 hour cultivation
Description: as §1
An assay on anticancer activity against cultured gastric cancer cells was carried out in the same manner as in the Assay 2 except that gastric cancer cells NUGC-3 were used instead of the colon cancer cells DLD-1.
The results are shown as IC50 in Table 3 below.

Compound | IC50 (Colon cancer cells DLD-1) [µg/mL] | IC50 [1] [µg/mL] | IC50 (DNA polymerase α) [µM]
CCCCCCCCCCCCCC(=O)OCC(CO[C@H]1O[C@H](CS(=O)(=O)O)[C@H](O)[C@H](O)[C@H]1O)OC(=O)CCCCCCCCCCCCC (stereo partly drawn) [SFAG4, 3-O-(6-deoxy-6-sulfo-α-D-galactopyranosyl)-1,2-di-O-myristoyl-glycerol sodium salt] |  |  | 0.657
CCCCCCCCCCCCCCCC(=O)OCC(CO[C@H]1O[C@H](CS(=O)(=O)O)[C@H](O)[C@H](O)[C@H]1O)OC(=O)CCCCCCCCCCCCCCC (stereo partly drawn) [SFAG5, 3-O-(6-deoxy-6-sulfo-α-D-galactopyranosyl)-1,2-di-O-palmitoyl-glycerol sodium salt] |  |  | 0.551
CCCCCCCCCCCCCCCCCC(=O)OCC(CO[C@H]1O[C@H](CS(=O)(=O)O)[C@H](O)[C@H](O)[C@H]1O)OC(=O)CCCCCCCCCCCCCCCCC (stereo partly drawn) [SFAG6, 3-O-(6-deoxy-6-sulfo-α-D-galactopyranosyl)-1,2-di-O-stearoyl-glycerol sodium salt] |  |  | 0.458

More lines, main results first:

IC50 (Colon cancer cells DLD-1) [µg/mL] | IC50 [1] [µg/mL] | Compound | IC50 (DNA polymerase α) [µM]
44 | 44.3 | CCCCCCCCCCCCCC(=O)OCC(O)CO[C@H]1O[C@H](CS(=O)(=O)[O-])[C@H](O)[C@H](O)[C@H]1O.[Na+] (stereo partly drawn) [SFAG1, 3-O-(6-deoxy-6-sulfo-α-D-galactopyranosyl)-1-O-myristoyl-glycerol sodium salt] | 7.63
41.5 | 41.7 | CCCCCCCCCCCCCCCC(=O)OCC(O)CO[C@H]1O[C@H](CS(=O)(=O)[O-])[C@H](O)[C@H](O)[C@H]1O.[Na+] (stereo partly drawn) [SFAG2, 3-O-(6-deoxy-6-sulfo-α-D-galactopyranosyl)-1-O-palmitoyl-glycerol sodium salt] | 8.64
27.5 | 30.3 | CCCCCCCCCCCCCCCCCC(=O)OCC(O)CO[C@H]1O[C@H](CS(=O)(=O)[O-])[C@H](O)[C@H](O)[C@H]1O.[Na+] (stereo partly drawn) [SFAG3, 3-O-(6-deoxy-6-sulfo-α-D-galactopyranosyl)-1-O-stearoyl-glycerol sodium salt] | 8.24
